The test system of data set [1] is Escherichia coli DSM 1103. As to the kind of experiment: MIC, agar dilution (DIFCO Bacto Nutrient Agar). It is filed as cell-based. The method, then:
(§1) The plates were then inoculated with a bacterial suspension obtained by diluting an overnight culture (37° C.) in DIFCO Bacto Nutrient Broth (pH 6.8) with sterile 1% NaCl (1:1000) using a 19 pin inoculator (Mast Diagnostics). MIC's […] were determined 18 h after incubation at 37° C.
(§2) Inoculum effect after inoculation with an non-diluted overnight culture (in comparison to Table 1). MIC's (μ/ml) were determined 18 h after incubation at 37° C.

The test system of another data set is Escherichia coli TEM 1. Kind of data set: MIC, agar dilution (DIFCO Bacto Nutrient Agar). It is filed as cell-based. As for the experimental part:
as §1, §2

The next data set relates to Staph. aureus 25768. Kind of data set: MIC, agar dilution (DIFCO Bacto Nutrient Agar). The data set is classed as cell-based. As for the experimental part:
as §1, §2

A further data set concerns Staph. aureus DSM 1104. Kind of data set: MIC, agar dilution (DIFCO Bacto Nutrient Agar). It is filed as cell-based. As for the experimental part: as §1, §2
Another data set deals with Staph. aureus resistant. As to the kind of experiment: MIC, agar dilution (DIFCO Bacto Nutrient Agar). It is filed as cell-based. The method, then:
as §1, §2

Data set [2] can be described thus: Chemical stability, half-life of hydrolysis by UV spectroscopy. The settings on record: 37° C. It is filed as physicochemical. As for the experimental part:
The half-lives (h) of hydrolysis was determined at 37° C. by UV spectroscopy in physiological phosphate buffer and in physiological NaCl solution containing 0.01 N HCl.

Data set [3] can be described thus: Blood serum stability, agar diffusion test with Escherichia coli TEM 1. It is filed as in vitro ADME. The settings on record: sterile bovine serum (OXOID), 37° C. The method, then: The stability in blood serum was determined microbiologically using agar diffusion test with Escherichia coli TEM 1. The compounds I were incubated with sterile bovine serum (OXOID) at 37° C. At 0 h, 1 h, 2 h and 4 h intervals aliquot samples were spotted and remaining amounts of active antibiotic were calculated from the inhibition diameters (18-30 mm) in comparison with those (15-30 mm) obtained with 30 μg, 15 μg, 7.5μ and 3.75 μg of antibiotic.

Another data set deals with E. coli 3981 TEM-1. As to the kind of experiment: In vivo activity, experimental systemic infection in mice. The settings on record: Escherichia coli. As for the experimental part:
In vivo activity (ED50) was determined. Mice were infected intraperitoneally with ca. […] of E. coli 3981 TEM-1. Untreated animals died within 48 h after infection. Compounds were administered by oral or subcutaneous route a first time 10 min after infection and a second time 4 h later. The 50% effective dose (ED50) was calculated by the Spearman-Kärber method from the percentages of animals surviving to day 7 at each dose.

Where [4] appears, read: Escherichia coli DSM 1103, inoculum ca. 10^4, 18 h at 37° C.
Setting [5] is: Escherichia coli DSM 1103, inoculum ca. 10^7 (non-diluted overnight culture), 18 h at 37° C.
The mark [6] stands for this setting: Escherichia coli TEM 1, inoculum ca. 10^4, 18 h at 37° C.
Where [7] appears, read: Escherichia coli TEM 1, inoculum ca. 10^7 (non-diluted overnight culture), 18 h at 37° C.
Where [8] appears, read: Staph. aureus 25768, inoculum ca. 10^4, 18 h at 37° C.
Setting [9] is: Staph. aureus 25768, inoculum ca. 10^7 (non-diluted overnight culture), 18 h at 37° C.
Setting [10] is: Staph. aureus DSM 1104, inoculum ca. 10^4, 18 h at 37° C.
Where [11] appears, read: Staph. aureus DSM 1104, inoculum ca. 10^7 (non-diluted overnight culture), 18 h at 37° C.
[12] abbreviates: inoculum ca. 10^4, 18 h at 37° C.
[13] abbreviates: inoculum ca. 10^7 (non-diluted overnight culture), 18 h at 37° C.
Where [14] appears, read: pH 2, physiological NaCl solution containing 0.01 N HCl.
Setting [15] is: pH 7.4, physiological phosphate buffer.

Structures are written as SMILES.

On to `COCSC1=C(C(=O)[O-])N2C(=O)[C@@H](NC(=O)/C(=N\OC)c3csc(N)n3)[C@H]2SC1.[K+]` [Cephalosporin 1a, potassium (6R,7R)-7-[(Z)-2-(2-amino-thiazol-4-yl)-2-methoximino-acetylamino]-3methoxymethylthio-8-oxo-5-thia-1-aza-bicyclo[4.2.0]oct-2-ene-2-carboxylate], for which the MIC in data set [1] (setting [4]) was 1 pig/ml; in data set [1] (setting [5]), 1 μ/ml; in the data set on Escherichia coli TEM 1 (setting [6]) it was 2 pig/ml; against Escherichia coli TEM 1 (setting [7]) it was 2 μ/ml; against Staph. aureus 25768 (setting [8]), 16 pig/ml; in the data set on Staph. aureus 25768 (setting [9]), 32 μ/ml. Moreover, the MIC was 0.5 pig/ml in the data set on Staph. aureus DSM 1104 (setting [10]), 0.5 μ/ml in the data set with Staph. aureus DSM 1104 (setting [11]), 2 pig/ml in the data set with Staph. aureus resistant (setting [12]) and 4 μ/ml in the data set with Staph. aureus resistant (setting [13]). In addition, the half-life in data set [2] (setting [14]) was 15.6 days; in data set [2] (setting [15]) it was 16.9 days; in data set [3], 0.2 days. For the same molecule, the ED50 in the data set with E. coli 3981 TEM-1 (3981TEM1, po) stood at 8.35 mg/kg; in the data set on E. coli 3981 TEM-1 (3981TEM1, sc), 0.84 mg/kg.

For the molecule `COCSC1=C(C(=O)[O-])N2C(=O)[C@@H](NC(=O)/C(=N\OCC(=O)[O-])c3csc(N)n3)[C@H]2SC1.[K+].[K+]` [Cephalosporin 1b, dipotassium (6R,7R)-7-[(Z)-2-(2-amino-thiazol-4-yl)-2-carboxy-methoximino-acetylamino]-3-methoxymethylthio-8-oxo-5-thia-1-aza-bicyclo[4.2.0]oct-2-ene-2-carboxylate], the MIC in data set [1] (setting [4]) is recorded as 2 pig/ml; in data set [1] (setting [5]) it was 2 μ/ml; against Escherichia coli TEM 1 (setting [6]), 2 pig/ml; against Escherichia coli TEM 1 (setting [7]), 2 μ/ml; against Staph. aureus 25768 (setting [8]), greater than 64 pig/ml; in the data set with Staph. aureus 25768 (setting [9]), greater than 64 μ/ml. The MIC stood at 4 pig/ml against Staph. aureus DSM 1104 (setting [10]), 4 μ/ml against Staph. aureus DSM 1104 (setting [11]), 16 pig/ml against Staph. aureus resistant (setting [12]) and 32 μ/ml in the data set on Staph. aureus resistant (setting [13]). The half-life in data set [2] (setting [14]) is 16.6 days; in data set [2] (setting [15]), 17.5 days; in data set [3], 0.113 days.

As to `COCSC1=C(C(=O)O)N2C(=O)[C@@H](NC(=O)[C@H](N)c3ccccc3)[C@H]2SC1` [Cephalosporin 1c, (2′R,6R,7R)-7-(2′amino-2′-phenylacetamino)-3-methoxymethylthio-8-oxo-5-thia-1-aza-bicyclo[4.2.0]oct-2-ene-2-carboxylic acid], the MIC in data set [1] (setting [4]) is listed as 4 pig/ml; in data set [1] (setting [5]), 4 μ/ml; in the data set on Escherichia coli TEM 1 (setting [6]) it was greater than 64 pig/ml; in the data set on Escherichia coli TEM 1 (setting [7]) it was 32 μ/ml; against Staph. aureus 25768 (setting [8]) it was 8 pig/ml; in the data set with Staph. aureus 25768 (setting [9]), 32 μ/ml. For the same molecule, the MIC against Staph. aureus DSM 1104 (setting [10]) was found to be 0.2 pig/ml; against Staph. aureus DSM 1104 (setting [11]), 0.5 μ/ml; in the data set with Staph. aureus resistant (setting [12]) it was 2 pig/ml; against Staph. aureus resistant (setting [13]) it was 8 μ/ml. Further, the half-life in data set [2] (setting [14]) is 7.12 days; in data set [2] (setting [15]), 7.54 days.

Source of the values: US20040260084A1, “Novel c-3 s/o-and s/n formaldehe acetal derivatives of cephalosporins and their use as antibotics” (priority 2001, published 2004).
